Measurements taken from patent US20150359798A1, “PIPERAZINYL DERIVATIVE REDUCES HIGH-FAT DIET-INDUCED ACCUMULATION OF FAT IN THE LIVERS, […]” (priority 2011, published 2015).

Experiments:
ROCK II = ROCK II expression in liver of HFD mice (8 weeks); format: in vivo; conditions: animals treated with HFD
Method: In the 8 week experiment, C57BL/6J male mice (21-22 g), after fasting, were fed a HFD as a model of hyperlipidemia for 8 weeks. During the 2 month experiments, mice fasted for one night before the experiment was changed from a standard diet (STD) to a HFD and then the mice were randomly divided into 5 groups, including 2 control and 3 treatment groups. Six mice were used in each group. […] Liver from the protection group supplemented with KMUP-1 HCl (1 mg/kg/day) were used to determine the HMG CoA reductase expression.
(§1) For the expression of SR-B1, HMGR, PPARγ and ROCK isolated liver tissues were cut into small chips and placed into an extraction buffer (Tris 10 mM, pH 7.0, NaCl 140 mM, PMSF 2 mM, DTT 5 mM, NP-40 0.5%, pepstatin A 0.05 mM and leupeptin 0.2 mM) for hepatic protein extraction, and centrifuged at 20,000 g for 30 minutes. The obtained protein extract was boiled to a ratio of 4:1 with a sample buffer (Tris 100 mM, pH 6.8, glycerol 20%, SDS 4% and bromophenol blue 0.2%). Electrophoresis was performed using 10% SDS-polyacrylamide gel (1 hour, 100 V, 40 mA, 20 μg protein per lane).
Separated proteins, after 3 repeated centrifugations to discard up-layer tissue lipid inpurity, were transferred to PVDF membranes treated with 5% fat-free milk powder to block the nonspecific IgGs (90 minutes, 100 V) and incubated for 1 hour with specific protein antibody. […]

SR-B1 = test: HFD-induced hepatic SR-B1 expression (14-week experiment); format: in vivo, mice; conditions: drinking KMUP-1
Method: (§2) In the 14-week experiment, mice were fed a HFD from week 1 to week 14. During the 3 month experiments, KMUP-1 HCl (2.5 mg) was added to 200 ml tap water and) and drink for 14 weeks or for the last 6 weeks on mice or obese mice fed HFD, separately. 5 mice had free access to drinking water from week 1 to week 14 (protective group) or from week 8 to week 14 (treatment group). Tap water was used to normalize mineral nutrition (Scheme A).
as §1
Separated proteins, after 3 repeated centrifugations to discard up-layer tissue lipid inpurity, were transferred to PVDF membranes treated with 5% fat-free milk powder to block the nonspecific IgGs (90 minutes, 100 V) and incubated for 1 hour with specific protein antibody. The blot was then incubated with anti-mouse or anti-goat IgG linked to alkaline phosphatase (1:1000) for 1 hour.

RhoA = RhoA translocation from cytosol to membranes in HepG2 cells; format: cell-based
Method: (§3) HepG2 cells were treated with various concentrations of drugs for 24 hours. Reactions were terminated by washing twice with cold PBS, and the cells were then harvested, Proteins in the whole-cell lysate were homogenized in an ice-cold lysis buffer and a protease inhibitor (Sigma-Aldrich, St. Louis, Mo., U.S.A.). The homogenate was centrifuged at 90, 000 g for 15 minutes at 4° C., and supernatant was recovered as the total cellular protein. Cytosolic and membrane fractions of HepG2 cells were prepared using a. CNM (Cytosol Nuclear Membrane) compartment protein extraction kit (BioChain Institute Inc., Hayward, Calif., U.S.A.) according to the manufacturer's instructions. All of the fractionated protein solutions were stored at −80° C. until analysis. To measure the expression levels of proteins by drugs, the total cell protein was extracted after incubation with treatments for 24 hours and then Western blotting analysis was performed as described previously.

Rho-kinase = test: Table 3 Rho-kinase (% of control); format: cell-based; conditions: control group = 100 (%)
PPAR-γ = test: Table 3 PPAR-γ (% of control); format: cell-based; conditions: control group = 100 (%)
[1] = biological target: T1, Human recombinant HMG CoA reductase (Homo sapiens, UniProt P04035); test: HMG CoA reductase activity, [14C]mevalonate formation; format: biochemical; conditions: 10 μM
T1 construct: purchased Sigma-Aldrich (printed 'Sigma-Adrich') H7039; host or cells: E. coli
T1 sequence (P04035 426-888 limits assumed): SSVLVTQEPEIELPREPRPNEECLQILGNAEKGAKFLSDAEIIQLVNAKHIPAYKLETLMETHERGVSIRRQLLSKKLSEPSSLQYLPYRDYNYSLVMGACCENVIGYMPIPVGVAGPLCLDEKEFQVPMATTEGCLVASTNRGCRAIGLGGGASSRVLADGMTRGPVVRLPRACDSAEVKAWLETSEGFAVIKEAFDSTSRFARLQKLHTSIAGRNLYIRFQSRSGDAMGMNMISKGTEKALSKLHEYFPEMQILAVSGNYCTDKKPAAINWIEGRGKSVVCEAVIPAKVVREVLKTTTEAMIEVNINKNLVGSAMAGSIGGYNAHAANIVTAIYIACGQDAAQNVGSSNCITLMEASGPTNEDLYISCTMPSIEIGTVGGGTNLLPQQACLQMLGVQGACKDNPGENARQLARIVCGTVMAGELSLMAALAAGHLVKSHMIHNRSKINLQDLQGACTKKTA
Method: Human recombinant HMG CoA reductase expressed in E. coli (H7039, Sigma-Adrich, Mo, U.S.A.) was used. Human recombinant HMG-CoA reductase, examined by SDS-PAGE to be ≧90% in purity, 2-8 units/mg protein in activity and ˜76 kDa in molecular weight (H7039, Sigma-Adrich, St. Louis, Mo. U.S.A.), was used for determining the formation of [^14C]mevalonate. […] The reaction was initiated by the addition of 2.5 μM [^14C]HMG-CoA for another 20 minutes incubation period and terminated by further addition of 1 N HCl. An aliquot was removed by column and counted to determine the amount of [^14C]mevalonate formed (Ricera® Co. Ltd., Taipei, Taiwan).

HSL [2] = test: HSL immunoreactivity in HepG2 cells; format: cell-based
ABCA1 = ABCA1 expression in liver of HFD mice (8 weeks); format: in vivo; conditions: animals treated with HFD
p-HSL = test: IHC staining of p-HSL in steatohepatitis liver; format: in vivo, mice; conditions: treatment and protection groups
Method: as §2
(§4) For IHC of MMP-9/TNFα, HSL/p-HSL/ATGL and eNOS/IL-10, antigen retrieval of de-paraffinated sections was performed in Dako target retrieval solution, pH 9.0, in a vegetable steamer followed by the quenching of endogenous peroxidase activity with 3.0% H2O2 in methanol. Sections were then incubated with specific primary antibodies overnight at 4° C. in a humidified chamber. The antibodies used included rabbit polyclonal anti-eNOS (1:50 dilution) (Abcam, Cambridge, UK) or rabbit monoclonal anti-cleaved caspase-3 (1:50 dilution) (Cell Signaling, USA). The sections were then examined using a DAKO REAL EnVision™ Detection System kit (DAKO, Carpinteria, Calif.) and counterstained with hematoxylin. Images were obtained through a Nikon Eclipse TE200-S microscope.

PKG = PKG expression and immunoreactivity in HepG2 cells; format: cell-based
eNOS = eNOS expression in HepG2 cells; format: cell-based
Method: as §3

LDLR = test: Fluorescence staining of LDLRs in HepG2 cells; format: cell-based
Method: HepG2 cells were used to determine the cellular protein expression of LDLRs in the presence of exogenous LDL (500 μg/mL) Bodipy-493/503 ([…]) overnight at 4° C., followed by merger of obtained BODIPY- and LDL-images to analyze the location of LDLRs. All images were collected and analyzed by scanning with Nikon Eclipse TE200-S microscope (Tokyo, Japan).

IL-10 = test: IHC staining of IL-10 in epididymal fat pads; format: in vivo, mice; conditions: protection, 2.5 mg/kg/day
Method: as §4

HSL [3] = test: IHC staining of HSL in steatohepatitis liver; format: in vivo, mice; conditions: after treatment or protection
Method: as §2, §4

## Cn1c(=O)c2c(ncn2CCN2CCN(c3ccccc3Cl)CC2)n(C)c1=O [KMUP-1, 7-[2-[4-(2-chlorophenyl)piperazinyl]ethyl]-1,3-dimethyl xanthine]
ROCK II
  ROCK II in liver: inactivated
SR-B1
  HFD-induced hepatic SR-B1 expression: inhibit
RhoA
  translocation of RhoA from cytosol to membranes: concentration-dependently inhibited
Rho-kinase; 0.1 μM
  Rho-kinase: 82.8 ± 7.8%
Rho-kinase; 1.0 μM
  Rho-kinase: 78.4 ± 6.9%
Rho-kinase; 10 μM
  Rho-kinase: 75.8 ± 6.4%
PPAR-γ; 0.1 μM
  PPAR-γ: 123.5 ± 17.3%
PPAR-γ; 1.0 μM
  PPAR-γ: 135.6 ± 14.5%
PPAR-γ; 10 μM
  PPAR-γ: 142.6 ± 15.4%
[1]
  [14C]mevalonate formation: could not reduce
HSL [2]
  HSL immunoreactivity (green fluorescence): increased
ABCA1
  ABCA1 in liver: activated
p-HSL
  p-HSL (IHC, liver): activation
PKG; 10, 20, 40 µM, in the presence of LDL (500 μg/mL)
  expression of PKG: increased
PKG; data not shown
  PKG immunoreactivity: not significantly affected
eNOS
  expression of eNOS: concentration-dependently increased
LDLR; HepG2, 24 hours, KMUP-1 10^−6, 10^−5, 10^−4 M, simvastatin 10^−5 M
  LDLR (green fluorescence) expression: increased
LDLR; HepG2, concentrations >10^−4 M, near the viability range
  LDLR fluorescence at high concentration: decline in fluoresence
IL-10
  IHC staining of IL-10 in epididymal fat pads: increased
HSL [3]
  HSL (IHC, liver): partly increased
